From PMC8402075, “Synthesis and Antiplasmodial Activity of Bisindolylcyclobutenediones” (Molecules, 2021) come the findings set out here.

“Also recorded” adds a separate entry of the source. Read-outs that look alike come from different tables or passages of the source.

The target of assay [1] is T1, recombinant PfGSK-3 (Plasmodium falciparum, UniProt O77344).
T1 construct: 6xHis (N, cleaved yes); GST (N, cleaved yes); made in house; host or cells: E. coli BL21 (DE3)-RIL
Put plainly: PfGSK-3 inhibition assay (KinaseGlo Plus). The assay is classed as biochemical. As to conditions: tested up to a concentration of 10 µM, kinase Glo assay. As for the experimental part:
PfGSK-3 was produced as published before. In brief, PfGSK-3 was cloned into pOPIN J expression vector [57] which was transformed into E. coli BL21 (DE3)-RIL. Expression of recombinant 6xHis-GST-PfGSK-3 was induced by incubation with isopropyl β-D-1-thiogalactopyranoside (IPTG). The recombinant protein was purified by affinity chromatography using glutathione resin and elution by digestion with human rhinovirus 3C protease.
The PfGSK-3 inhibition assay was carried out using the commercial KinaseGlo Plus assay (KinaseGlo Plus, Promega) as described before. In brief, the kinase and a corresponding substrate (GS-1 substrate, Promega) in the presence of ATP were used to perform substrate phosphorylation. Subsequently, luminescence is generated utilizing luciferase which is a component of the KinaseGlo Reagent. The intensity of the luminescence signal corresponds to the amount of remaining ATP in the reaction mixture. For the investigation, potential kinase inhibitors were dissolved in DMSO and were added directly to the kinase reaction. The final DMSO concentration in the kinase reaction was at most 1%. As the negative control, 1% DMSO without test compound was measured. A control reaction without kinase was measured simultaneously. The difference between kinase reaction and control reaction corresponds to the kinase activity.
On the technique in general: In Kinase-Glo more light means more ATP remaining.

The subject of assay [2] is P. falciparum (NF54-luc strain) erythrocytic stages. Kind of assay: Luciferase-based viability screening for antiplasmodial activity. The assay is classed as cell-based, Plasmodium falciparum. To be noted: Plasmodium falciparum; for inhibition at 3 µM: read-out: Inhibition at 3 µM [%]. As for the experimental part: All synthesized new bisindolylcyclobutenediones 2a–2ar and the related bisindolylmaleimide 8 [37] were screened for inhibition of erythrocytic stages of Plasmodium falciparum employing a bioluminescence-based viability assay on transgenic parasites that constitutively express luciferase (PfNF54-luc). Initially, the compounds were evaluated in single-dose test runs (3 µM). If >20% viability inhibition was observed, dose-response curves were generated and IC50 values were calculated (Table 1). […] The bisindolylmaleimide 8 [37] inhibited the parasites in a single-digit micromolar concentration, similar to many of the bisindolylcyclobutenediones in the study. Because the bisindolylcyclobutenediones 2 display a higher degree of structural novelty, only this compound class was further pursued for its antiplasmodial activity. […] These structural features were considered unfavorable for orientations as illustrated in Figure 2 with 2a and Pfmap-2, PfPK5, PfCDPK2, Pflammer, and PfPK7, respectively. However, a structure generated for 2a in PfGSK-3 in which the indole units are oriented perpendicular to each other (Figure 2a) was considered compatible with the indicated substitution pattern. Consequently, the potent antiplasmodial derivatives 2k, 2ad, and 2ae were tested in a kinase Glo assay for inhibition of recombinant PfGSK-3. […] For the compounds with particularly potent antiplasmodial activity, cytotoxicity was also determined using the human cell line THP-1 to assess selectivity with respect to parasite cells (Table 2).
Screening for the antiplasmodial activity of test compounds was performed by luciferase-based viability assays as reported previously. In brief, asexual erythrocytic stages of transgenic NF54-luc P. falciparum were cultured as described elsewhere. Parasite cultures with parasitaemia of 0.5–1% were incubated in the presence of 3 µM test compounds for 48 h. After the subsequent addition of Bright-Glo substrate solution (Promega, Madison, WI), the resulting luminescence was measured. Untreated cultures (0.01% DMSO) were used as negative controls. Experiments were performed in triplicate and were repeated as a whole at least twice. Blasticidin (Sigma-Aldrich, St. Louis, MO, USA) was included as a positive control.

The subject of assay [3] is human THP-1 cell line. Put plainly: Cytotoxicity assay on human THP-1 cell line (Alamar Blue). The assay is classed as cell-based. As to conditions: for Selectivity Index (SI) = IC50, THP-1/IC50, Pf: THP-1 versus P. falciparum NF54-luc; for IC50: human THP-1 cell line, 48 h, Alamar Blue. The procedure:
The cytotoxicity of selected antiplasmodial bisindolylcyclobutenediones was determined against THP-1 cells following a protocol described previously. In brief, THP-1 cells were incubated with test compounds in serial compound dilutions in the presence of 0.01% DMSO at 37 °C. After 48 h, Alamar Blue was added, and after 4 h the fluorescence was read (λex = 544 nm, λem = 590 nm) using a microplate reader. THP-1 cells in wells containing medium plus 0.01% DMSO served as negative controls. Experiments were performed in triplicate and were repeated as a whole at least twice.
For orientation: The colour change of resazurin is a common sign of viable cells or microbes.

Where [4] appears, read: NF54, 48 h, read-out: IC50 [µM], concentration for 50% inhibition of P. falciparum (NF54-luc strain) erythrocytic stages.
Where [5] appears, read: NF54, read-out: IC50 P. falciparum (quoted in the discussion).

A word on the inhibition: it is the change of the read-out against control, counted positive when it falls.

T1 sequence (O77344 entry or part of it): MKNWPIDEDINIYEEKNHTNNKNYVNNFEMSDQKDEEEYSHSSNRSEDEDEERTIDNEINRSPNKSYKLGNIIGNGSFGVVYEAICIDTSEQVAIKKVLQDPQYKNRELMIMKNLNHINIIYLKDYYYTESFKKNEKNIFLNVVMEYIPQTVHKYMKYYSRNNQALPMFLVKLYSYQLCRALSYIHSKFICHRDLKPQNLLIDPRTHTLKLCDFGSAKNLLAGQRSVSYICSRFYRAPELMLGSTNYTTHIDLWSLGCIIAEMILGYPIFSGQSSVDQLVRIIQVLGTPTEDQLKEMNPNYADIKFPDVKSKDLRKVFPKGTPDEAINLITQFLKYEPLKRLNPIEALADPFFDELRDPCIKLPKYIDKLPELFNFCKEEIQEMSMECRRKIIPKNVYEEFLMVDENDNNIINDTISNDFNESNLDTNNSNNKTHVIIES

As for `COc1ccc2[nH]cc(-c3c(-c4c[nH]c5ccc(Br)cc45)c(=O)c3=O)c2c1` [2ad, 3-(5-Bromo-1H-indol-3-yl)-4-(5-methoxy-1H-indol-3-yl)cyclobut-3-ene-1,2-dione], in assay [1], the “Inhibition of recombinant PfGSK-3” value is “failed to show kinase inhibitory activity; also recorded: inactive; also recorded: did not inhibit PfGSK-3”. For the same molecule, the IC50 worked out at 0.47 µM in assay [2] (setting [4]); 0.47 µM in assay [2] (NF54, read-out: IC50, Pf [µM]); 14.1 µM in assay [3]. For the same molecule, the inhibition at 3 µM in assay [2] (NF54, 48 h) is 98.8 ± 0.7%. In addition, the “Selectivity Index (SI) = IC50, THP-1/IC50, Pf” value (from here on “Selectivity Index (SI) = IC50”) in assay [3] stood at 30.
As for `COc1ccc2[nH]cc(-c3c(-c4c[nH]c5ccc(I)cc45)c(=O)c3=O)c2c1` [2ae, 3-(5-Iodo-1H-indol-3-yl)-4-(5-methoxy-1H-indol-3-yl)cyclobut-3-en-1,2-dione], the “Inhibition of recombinant PfGSK-3” value in assay [1] is “failed to show kinase inhibitory activity; also recorded: inactive; also recorded: did not inhibit PfGSK-3”. Besides, the IC50 in assay [2] (setting [4]) was 0.64 µM; in assay [2] (NF54, read-out: IC50, Pf [µM]), 0.64 µM; in assay [3] it was 14.5 µM. In addition, the “Selectivity Index (SI) = IC50” value in assay [3] amounted to 23.
`COc1ccc2c(c1)c(-c1c(-c3c[nH]c4ccc(Br)cc34)c(=O)c1=O)cn2C` [2ao, 3-(5-Bromo-1H-indol-3-yl)-4-(5-methoxy-1-methyl-1H-indol-3-yl)cyclobut-3-en-1,2-dione]: the IC50 in assay [2] (setting [4]) was determined as 0.504 µM; in assay [2] (NF54, read-out: IC50, Pf [µM]), 0.5 µM; in assay [2] (setting [5]), 0.54 µM; in assay [3], 3.13 µM. Moreover, the inhibition at 3 µM in assay [2] (NF54, 48 h) was determined as 95.4 ± 1.1%. In addition, in assay [3], the “Selectivity Index (SI) = IC50” value is on record as 6.3.
Turning to `O=c1c(-c2c[nH]c3ccccc23)c(-c2c[nH]c3ccc(Br)cc23)c1=O` [2b, 3-(5-Bromo-1H-indol-3-yl)-4-(1H-indol-3-yl)cyclobut-3-ene-1,2-dione], the IC50 in assay [2] (setting [4]) is 3.02 µM; in assay [2] (NF54, read-out: IC50, Pf [µM]), 3.02 µM; in assay [2] (setting [5]) it was 3 µM; in assay [3], 23 µM. In addition, in assay [3], the “Selectivity Index (SI) = IC50” value is 7.6.
For the molecule `O=c1c(-c2c[nH]c3ccccc23)c(-c2c(-c3ccccc3)[nH]c3ccccc23)c1=O` [2h, 3-(1H-Indol-3-yl)-4-(2-phenyl-1H-indol-3-yl)cyclobut-3-ene-1,2-dione], the IC50 in assay [2] (setting [4]) was determined as 6.38 µM; in assay [2] (NF54, read-out: IC50, Pf [µM]) it was 6.38 µM; in assay [3] it was 6.37 µM. In addition, the “Selectivity Index (SI) = IC50” value in assay [3] is recorded as 1.0.
Consider `CN(C)CCCn1cc(-c2c(-c3c[nH]c4ccccc34)c(=O)c2=O)c2ccccc21` [2k, 3-{1-[3-(Dimethylamino)propyl]-1H-indol-3-yl}-4-(1H-indol-3-yl)cyclobut-3-ene-1,2-dione], for which, in assay [1], the “Inhibition of recombinant PfGSK-3” value is “failed to show kinase inhibitory activity; also recorded: inactive; also recorded: did not inhibit PfGSK-3”. Also, the IC50 was 0.376 µM in assay [2] (setting [4]); 0.38 µM in assay [2] (NF54, read-out: IC50, Pf [µM]); 12.8 µM in assay [3]. For the same molecule, in assay [2] (NF54, 48 h), the inhibition at 3 µM amounted to 98.1 ± 1.8%. For the same molecule, the “Selectivity Index (SI) = IC50” value in assay [3] is reported as 34.
As to `Cn1cc(-c2c(-c3c[nH]c4ccccc34)c(=O)c2=O)c2ccccc21` [2q, 3-(1H-Indol-3-yl)-4-(1-methyl-1H-indol-3-yl)cyclobut-3-ene-1,2-dione], the IC50 in assay [2] (setting [4]) was determined as 2.97 µM; in assay [2] (NF54, read-out: IC50, Pf [µM]), 2.97 µM; in assay [3] it was 14 µM. In addition, the “Selectivity Index (SI) = IC50” value in assay [3] amounted to 4.7.
Take `O=c1c(-c2c[nH]c3ccccc23)c(-c2c[nH]c3ccc(I)cc23)c1=O` [2r, 3-(1H-Indol-3-yl)-4-(5-iodo-1H-indol-3-yl)cyclobut-3-ene-1,2-dione]: the IC50 in assay [2] (setting [4]) worked out at 0.915 µM; in assay [2] (NF54, read-out: IC50, Pf [µM]), 0.92 µM; in assay [3], 7.25 µM. In addition, in assay [3], the “Selectivity Index (SI) = IC50” value is on record as 7.9.
Take `Cn1cc(-c2c(-c3c(-c4ccccc4)[nH]c4ccccc34)c(=O)c2=O)c2ccccc21` [2u, 3-(1-Methyl-1H-indol-3-yl)-4-(2-phenyl-1H-indol-3-yl)cyclobut-3-ene-1,2-dione]: the IC50 in assay [2] (setting [4]) was found to be 1.72 µM; in assay [2] (NF54, read-out: IC50, Pf [µM]) it was 1.72 µM; in assay [3] it was 2.1 µM. The “Selectivity Index (SI) = IC50” value in assay [3] is 1.2.
With `Cc1[nH]c2ccccc2c1-c1c(-c2cn(C)c3ccccc23)c(=O)c1=O` [2y, 3-(1-Methyl-1H-indol-3-yl)-4-(2-methyl-1H-indol-3-yl)cyclobut-3-ene-1,2-dione], the IC50 in assay [2] (setting [4]) stood at 2.67 µM; in assay [2] (NF54, read-out: IC50, Pf [µM]), 2.67 µM; in assay [3] it was 8.4 µM. In assay [3], the “Selectivity Index (SI) = IC50” value stood at 3.1.
